# Legend:
# P. falciparum HDAC1 = P. falciparum HDAC1 (Plasmodium falciparum, UniProt Q7K6A1); experiment: PfHDAC1 HDAC glo I/II; assay type: biochemical; conditions: 50nM
# PK7 = test system: PK7; design: method as in ref [25] (a number printed in a supplementary file, which may have a reference list of its own: not looked up in the article's list); conditions: control 100 µM; compounds 1 µM; ref [25]; cited from earlier work
# PvEg5 = test system: PvEg5; design: method as in ref [29] (a number printed in a supplementary file, which may have a reference list of its own: not looked up in the article's list); conditions: ref [29]; cited from earlier work
# P. falciparum = experiment: EC50 listed in S2 Table Metabolomics (used to set the concentration tested); assay type: cell-based; conditions: Plasmodium falciparum; EC50 used for Factor_XEC50 in metabolomics; read-out: EC50_nM
# [1] = test system: P. falciparum 3D7 trophozoites; experiment: Metabolomic fingerprint profiling LC-MS; assay type: cell-based, Plasmodium falciparum; design: UDP-D-glucose / ADP-D-glucose: unit not given here
# PfEg5 = test system: PfEg5; design: method as in ref [29] (a number printed in a supplementary file, which may have a reference list of its own: not looked up in the article's list); conditions: ref [29]; cited from earlier work
# P. falciparum HB3 = experiment: Stage-specificity / mitochondrial integrity image assay Ayong; assay type: cell-based; conditions: 10µM
# cruzain = cruzain (Trypanosoma cruzi, UniProt P25779); experiment: cruzain Z-FR-AMC cleavage; assay type: biochemical; conditions: 500 nM
# Description: (§1) Cysteine Protease Inhibitors Cruzain and Rhodesain, Ferreira group (data presented first in this paper). Recombinant cruzain was gently provided by Allison Doak and Dr. Brian Shoichet (University of California, San Francisco), while rhodesain was kindly provided by Dr. Conor Caffrey (Center for Discovery and Innovation in Parasitic Diseases, Skaggs School of Pharmacy and Pharmaceutical Sciences, University of California San Diego). Cruzain and rhodesain activity were measured as previously described, (Ferreira et al., 2010) by monitoring the cleavage of the fluorogenic substrate Z-Phe-Argaminomethylcoumarin (Z-FR-AMC) in a Synergy 2 (Biotek), from the Center of Flow Cytometry and Fluorimetry at the Biochemistry and Immunology Department (Universidade Federal de Minas Gerais, UFMG). Formation of fluorescent 4-amino-7-metyhlcoumarin was measured employing 340 nm wavelength for excitation and 440 nm for emission. […] Initially compounds were pre-incubated with the enzyme for 10 minutes in 100 µL assay buffer, then 100 µL of 5 μM substrate solution was added and the reaction was immediately monitored. Assays were performed in duplicate, followed for 5 min and activity was calculated based on initial velocities. […] Reported values refer to average and standard errors calculated based on duplicates. […] Data was analyzed with Prism 5.0 (GraphPad). […]
# rhodesain = rhodesain (Trypanosoma brucei rhodesiense, UniProt Q95PM0); experiment: rhodesain Z-FR-AMC cleavage; assay type: biochemical; conditions: 500 nM
# Description: as §1
# MAPK2 = test system: MAPK2; design: method as in ref [25] (a number printed in a supplementary file, which may have a reference list of its own: not looked up in the article's list); conditions: control 100 µM; compounds 1 µM; ref [25]; cited from earlier work
# [2] = molecular target: Pf KRS Lysyl-tRNA Synthetase (Plasmodium falciparum, UniProt Q8IDJ8); experiment: PfKRS Kinase-Glo aminoacylation; conditions: control 1µM; compounds 10 µM
# [3] = molecular target: Pf ProRS Prolyl-tRNA synthetase (Plasmodium falciparum, UniProt Q8I5R7); experiment: PfProRS Kinase-Glo aminoacylation; conditions: control 1µM; compounds 10 µM
# [4] = test system: Naegleria fowleri trophozoites; experiment: Naegleria fowleri CellTiter-Glo; assay type: cell-based; conditions: Naegleria fowleri
# Excerpt: Columns CY-CZ: Kyle group (data presented first in this paper). Naegleria fowleri trophozoite growth inhibition. Methods: The CellTiter-Glo (CTG) 2.0 luminescent assay is a quantitative assay that assesses the presence of cellular ATP in lysed cells, displaying an output in Relative Light Units (RLU’s). This was previously standardised, for the growth and development of Naegleria fowleri trophozoites in-vitro to assess drug susceptibility on this parasite. […] These included two drug-like molecules MMV665807 (St. Jude’s Children’s Hospital) and MMV665979 (The Genomics Institute of the Novartis Research Foundation - GNF) and two Probe-like molecules, MMV006203 (GNF) & MMV006172 (GNF; GlaxoSmithKline - GSK). […] However, these Malaria Box compounds were all toxic to zebrafish and mammalian cells.
# Staphylococcus aureus = experiment: S. aureus agar spot / MIC Baker; conditions: read-out: Minimum Inhibitory Concentrations (MIC) S. aureus
# [5] = test system: Acinetobacter baumannii ATCC 19606; experiment: A. baumannii agar spot / MIC Baker; conditions: ATCC19606, read-out: Minimum Inhibitory Concentrations (MIC) A. baumanii
# [6] = metabolite level change after treatment
# Sequence of Pf ProRS Prolyl-tRNA synthetase (Q8I5R7 8-746): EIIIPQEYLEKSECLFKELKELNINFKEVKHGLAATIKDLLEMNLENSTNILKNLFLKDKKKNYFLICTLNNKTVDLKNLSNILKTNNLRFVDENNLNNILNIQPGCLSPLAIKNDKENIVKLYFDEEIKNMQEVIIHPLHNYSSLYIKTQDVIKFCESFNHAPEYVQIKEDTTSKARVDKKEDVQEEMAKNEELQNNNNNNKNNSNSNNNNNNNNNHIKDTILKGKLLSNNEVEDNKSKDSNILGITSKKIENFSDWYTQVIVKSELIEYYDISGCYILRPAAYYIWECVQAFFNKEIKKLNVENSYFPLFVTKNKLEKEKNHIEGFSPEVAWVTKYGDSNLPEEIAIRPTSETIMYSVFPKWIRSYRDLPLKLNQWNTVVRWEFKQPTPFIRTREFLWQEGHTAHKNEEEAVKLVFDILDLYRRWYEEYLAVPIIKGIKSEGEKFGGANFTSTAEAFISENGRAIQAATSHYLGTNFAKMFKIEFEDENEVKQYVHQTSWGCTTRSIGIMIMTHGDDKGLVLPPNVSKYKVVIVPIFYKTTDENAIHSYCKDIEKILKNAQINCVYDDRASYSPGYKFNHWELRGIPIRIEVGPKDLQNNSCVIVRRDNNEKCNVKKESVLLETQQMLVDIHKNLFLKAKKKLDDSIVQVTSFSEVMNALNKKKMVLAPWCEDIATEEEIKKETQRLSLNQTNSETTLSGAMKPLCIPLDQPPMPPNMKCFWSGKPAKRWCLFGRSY
# Sequence of Pf KRS Lysyl-tRNA Synthetase (Q8IDJ8 entry or part of it): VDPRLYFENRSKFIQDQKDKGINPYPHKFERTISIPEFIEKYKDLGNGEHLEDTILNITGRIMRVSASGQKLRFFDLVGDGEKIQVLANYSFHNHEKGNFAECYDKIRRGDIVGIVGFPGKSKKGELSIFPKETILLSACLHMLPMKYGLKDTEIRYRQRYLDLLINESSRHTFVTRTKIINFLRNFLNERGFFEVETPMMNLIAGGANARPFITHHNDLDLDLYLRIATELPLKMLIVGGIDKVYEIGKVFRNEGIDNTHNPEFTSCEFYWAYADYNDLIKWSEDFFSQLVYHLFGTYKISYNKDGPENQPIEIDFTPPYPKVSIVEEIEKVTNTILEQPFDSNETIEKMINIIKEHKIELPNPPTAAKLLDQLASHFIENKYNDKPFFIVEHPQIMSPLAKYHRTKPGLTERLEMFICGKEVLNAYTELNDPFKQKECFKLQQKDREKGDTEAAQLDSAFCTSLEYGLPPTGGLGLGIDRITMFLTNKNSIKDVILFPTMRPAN
# Sequence of P. falciparum HDAC1 (Q7K6A1 entry or part of it): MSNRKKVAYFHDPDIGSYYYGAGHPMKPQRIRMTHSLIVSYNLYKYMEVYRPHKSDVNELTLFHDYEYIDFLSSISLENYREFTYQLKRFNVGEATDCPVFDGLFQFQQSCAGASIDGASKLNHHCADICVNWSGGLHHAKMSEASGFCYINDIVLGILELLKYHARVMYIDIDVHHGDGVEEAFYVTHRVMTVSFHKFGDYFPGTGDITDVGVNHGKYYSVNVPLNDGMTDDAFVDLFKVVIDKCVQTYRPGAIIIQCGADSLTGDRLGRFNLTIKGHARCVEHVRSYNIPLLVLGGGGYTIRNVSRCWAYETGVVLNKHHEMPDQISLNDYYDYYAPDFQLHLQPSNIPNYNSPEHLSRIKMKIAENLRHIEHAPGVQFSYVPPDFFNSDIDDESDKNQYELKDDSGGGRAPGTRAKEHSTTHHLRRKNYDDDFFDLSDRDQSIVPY
# Sequence of cruzain (P25779 123-337): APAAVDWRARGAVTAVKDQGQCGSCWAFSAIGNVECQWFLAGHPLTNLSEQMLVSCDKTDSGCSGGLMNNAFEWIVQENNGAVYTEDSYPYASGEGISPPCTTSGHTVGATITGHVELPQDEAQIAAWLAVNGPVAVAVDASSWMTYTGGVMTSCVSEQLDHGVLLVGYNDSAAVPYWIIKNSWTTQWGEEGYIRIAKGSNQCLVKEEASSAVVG
# Sequence of rhodesain (Q95PM0 entry or part of it): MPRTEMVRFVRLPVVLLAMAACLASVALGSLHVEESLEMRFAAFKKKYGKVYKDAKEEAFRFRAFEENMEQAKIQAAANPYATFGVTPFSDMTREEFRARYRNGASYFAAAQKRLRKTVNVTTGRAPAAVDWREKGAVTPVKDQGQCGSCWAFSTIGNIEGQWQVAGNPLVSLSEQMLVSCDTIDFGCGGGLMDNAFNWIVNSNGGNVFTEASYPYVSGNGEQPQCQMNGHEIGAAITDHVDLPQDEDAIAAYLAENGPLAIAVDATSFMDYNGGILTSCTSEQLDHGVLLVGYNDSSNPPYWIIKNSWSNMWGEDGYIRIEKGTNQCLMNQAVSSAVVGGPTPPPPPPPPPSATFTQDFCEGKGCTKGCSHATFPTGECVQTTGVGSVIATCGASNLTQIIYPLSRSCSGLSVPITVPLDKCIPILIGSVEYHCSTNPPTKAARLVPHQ
smiles,measurement,setting,value
CC(/C=C/C(=O)NO)=C\[C@@H](C)C(=O)c1ccc(N(C)C)cc1 [trichostatin A],PfHDAC1 % inhibition,P. falciparum HDAC1,89.9 ± 0.5%
CC(C)(C)n1nc(-c2cccc3ccccc23)c2c(N)ncnc21 [1NA-PP1],PK7 % inhibition,PK7,> 80%
COc1cccc(C=Cc2nc(=O)c3ccccc3o2)c1OC [MMV666693],PvEg5 ATPase inhibition in words,PvEg5,selective inhibitor
same,EC50,P. falciparum,0.0238 µM
same,Acetyllysine,"[1]; S2 Table Metabolomics, metabolite Acetyllysine",0.1397
same,N-acetyl-L-ornithine,"[1]; S2 Table Metabolomics, metabolite N-acetyl-L-ornithine",0.2363
same,N-carbamoyl-L-aspartate,"[1]; S2 Table Metabolomics, metabolite N-carbamoyl-L-aspartate",3.172
same,NADPH,"[1]; S2 Table Metabolomics, metabolite NADPH",0.2825
same,dAMP,"[1]; S2 Table Metabolomics, metabolite dAMP",-0.08701
same,dCMP,"[1]; S2 Table Metabolomics, metabolite dCMP",0.2474
same,dTDP,"[1]; S2 Table Metabolomics, metabolite dTDP",-0.7354
same,dTMP,"[1]; S2 Table Metabolomics, metabolite dTMP",-0.4318
same,dTTP,"[1]; S2 Table Metabolomics, metabolite dTTP",-0.1932
same,dihydroorotate,"[1]; S2 Table Metabolomics, metabolite dihydroorotate",3.894
same,orotate,"[1]; S2 Table Metabolomics, metabolite orotate",-0.9184
same,DLH,"[1]; S2 Table Metabolomics, peptide DLH",-0.06293
same,DLS/SDL/SID,"[1]; S2 Table Metabolomics, peptide DLS/SDL/SID",-0.09731
same,PD,"[1]; S2 Table Metabolomics, peptide PD",0.5949
same,PEE,"[1]; S2 Table Metabolomics, peptide PEE",-0.05317
same,PVNF,"[1]; S2 Table Metabolomics, peptide PVNF",-0.1239
same,3-phosphoglycerate,"[1]; metabolite 3-phosphoglycerate, S2 Table Metabolomics",0.2329
same,ADP-D-glucose,"[1]; metabolite ADP-D-glucose, S2 Table Metabolomics",0.3504
same,ATP,"[1]; metabolite ATP, S2 Table Metabolomics",0.6585
same,CDP,"[1]; metabolite CDP, S2 Table Metabolomics, change in metabolite level after compound treatment",-0.7718
same,D-sedoheptulose-1/7-phosphate,"[1]; metabolite D-sedoheptulose-1/7-phosphate, S2 Table Metabolomics, change in metabolite level after compound treatment",0.3935
same,FAD,"[1]; metabolite FAD, S2 Table Metabolomics",0.6886
same,GMP,"[1]; metabolite GMP, S2 Table Metabolomics, change in metabolite level after compound treatment",2.325
same,NAD+,"[1]; metabolite NAD+, S2 Table Metabolomics",0.3862
same,NADP+,"[1]; metabolite NADP+, S2 Table Metabolomics",0.1667
same,Octoluse Bisphosphate,"[1]; metabolite Octoluse Bisphosphate, S2 Table Metabolomics, change in metabolite level after compound treatment",0.214
same,Pyroglutamic acid,"[1]; metabolite Pyroglutamic acid, S2 Table Metabolomics",-0.09945
same,UDP-D-glucose,"[1]; metabolite UDP-D-glucose, S2 Table Metabolomics",0.3609
same,UDP-D-glucuronate,"[1]; metabolite UDP-D-glucuronate, S2 Table Metabolomics",0.4012
same,UDP-N-acetyl-glucosamine,"[1]; metabolite UDP-N-acetyl-glucosamine, S2 Table Metabolomics",0.3198
same,UDP,"[1]; metabolite UDP, S2 Table Metabolomics, change in metabolite level after compound treatment",-0.8743
same,UMP,"[1]; metabolite UMP, S2 Table Metabolomics, change in metabolite level after compound treatment",-0.7276
same,UTP,"[1]; metabolite UTP, S2 Table Metabolomics, change in metabolite level after compound treatment",-0.635
same,a-ketoglutarate,"[1]; metabolite a-ketoglutarate, S2 Table Metabolomics",-0.04301
same,citrate/isocitrate,"[1]; metabolite citrate/isocitrate, S2 Table Metabolomics, change in metabolite level after compound treatment",-0.1473
same,cytidine,"[1]; metabolite cytidine, S2 Table Metabolomics",0.3511
same,dATP,"[1]; metabolite dATP, S2 Table Metabolomics",0.7712
same,dGMP/AMP,"[1]; metabolite dGMP/AMP, S2 Table Metabolomics, change in metabolite level after compound treatment",-0.2164
same,fumarate,"[1]; metabolite fumarate, S2 Table Metabolomics, change in metabolite level after compound treatment",0.7025
same,glucose-1/6-phosphate,"[1]; metabolite glucose-1/6-phosphate, S2 Table Metabolomics, change in metabolite level after compound treatment",0.5191
same,glycerate,"[1]; metabolite glycerate, S2 Table Metabolomics, change in metabolite level after compound treatment",-0.06297
same,guanine,"[1]; metabolite guanine, S2 Table Metabolomics, change in metabolite level after compound treatment",0.6599
same,guanosine,"[1]; metabolite guanosine, S2 Table Metabolomics, change in metabolite level after compound treatment",0.8246
same,hypoxanthine,"[1]; metabolite hypoxanthine, S2 Table Metabolomics",0.08871
same,indole,"[1]; metabolite indole, S2 Table Metabolomics",0.0369
same,inosine,"[1]; metabolite inosine, S2 Table Metabolomics, change in metabolite level after compound treatment",0.4625
same,2_3-Diphosphoglyceric acid,[1]; [6],0.5942
same,4-phosphopantothenate,[1]; [6],0.0573
same,6-phospho-D-gluconate,[1]; [6],0.4861
same,FMN,[1]; [6],0.3054
same,IMP,[1]; [6],0.1618
same,Pyrophosphate,[1]; [6],0.3262
same,Sedoheptoluse bisphosphate,[1]; [6],0.378
same,cyclic-AMP,[1]; [6],0.4484
same,glutathione disulfide,[1]; [6],0.6375
same,lactate,[1]; [6],0.2118
same,myo-inositol,[1]; [6],0.3466
same,nicotinate,"[1]; metabolite nicotinate, S2 Table Metabolomics",0.3154
same,ornithine,"[1]; metabolite ornithine, S2 Table Metabolomics",0.1755
same,phosphoenolpyruvate,"[1]; metabolite phosphoenolpyruvate, S2 Table Metabolomics",0.1481
same,pyruvate,"[1]; metabolite pyruvate, S2 Table Metabolomics, change in metabolite level after compound treatment",-0.005171
same,ribose-phosphate,"[1]; metabolite ribose-phosphate, S2 Table Metabolomics",0.3602
same,sarcosine/alanine,"[1]; metabolite sarcosine/alanine, S2 Table Metabolomics, change in metabolite level after compound treatment",0.4257
same,sn-glycerol-3-phosphate,"[1]; metabolite sn-glycerol-3-phosphate, S2 Table Metabolomics",0.6187
same,succinate/methylmalonic acid,"[1]; metabolite succinate/methylmalonic acid, S2 Table Metabolomics, change in metabolite level after compound treatment",0.3609
same,uridine,"[1]; metabolite uridine, S2 Table Metabolomics, change in metabolite level after compound treatment",-0.1766
same,xanthosine,"[1]; metabolite xanthosine, S2 Table Metabolomics, change in metabolite level after compound treatment",0.5199
same,PfEg5 ATPase inhibition in words,PfEg5,selective inhibitor
"CC(C)C[C@H](NC(=O)[C@H]1O[C@@H]1C(=O)O)C(=O)NCCCCN=C(N)N (relative stereo) [E-64, trans-Epoxysuccinyl-L-leucylamido-(4-guanidino) butane]","Effects on asexual life cycle progression (treatment at ER, LR, T, S; merozoites; mitochondrial integrity)",P. falciparum HB3,X-S-S-X-o-o
same,cruzain % inhibition,cruzain,approximately 100%
same,rhodesain % inhibition,rhodesain,approximately 100%
Nc1ncnc2c1ncn2[C@@H]1O[C@H](COP(=O)(O)OP(=O)(O)NP(=O)(O)O)[C@@H](O)[C@H]1O [AMP-PNP],MAPK2 % inhibition,MAPK2,> 80%
C[C@H]1CCC[C@H](C[C@H]2Cc3cc(O)cc(O)c3C(=O)O2)O1 [Cladosporin],PfKRS % inhibition,[2],100%
O=C(CC1NCCCC1O)Cn1cnc2cc(Br)c(Cl)cc2c1=O (stereo not drawn) [halofuginone],PfProRS % inhibition,[3],100%
O=C(Nc1cccc(C(F)(F)F)c1)c1cc(Cl)ccc1O [MMV665807],EC50,[4],1.09 µM
same,MIC,Staphylococcus aureus,1.25 to 5 µM
same,MIC,[5],1.25 to 5 µM

# Source: publication PMC4965013, “Open Source Drug Discovery with the Malaria Box Compound Collection for Neglected Diseases and Beyond” (PLoS Pathogens, 2016)
